Measurements as given in ChEMBL document CHEMBL1201862, “PubChem BioAssay data set” (2004).
The source made the active and inactive calls.

What was measured:
[1] = biological target: T1, Short transient receptor potential channel 4 (Mus musculus, UniProt Q9QUQ5); assay: mouse TRPC4 channel activators, dose response, cell-based, HEK293 TRPC4/mu-opioid, Fluo-4 calcium (AID 434937); format: functional
T1 sequence (Q9QUQ5 whole entry): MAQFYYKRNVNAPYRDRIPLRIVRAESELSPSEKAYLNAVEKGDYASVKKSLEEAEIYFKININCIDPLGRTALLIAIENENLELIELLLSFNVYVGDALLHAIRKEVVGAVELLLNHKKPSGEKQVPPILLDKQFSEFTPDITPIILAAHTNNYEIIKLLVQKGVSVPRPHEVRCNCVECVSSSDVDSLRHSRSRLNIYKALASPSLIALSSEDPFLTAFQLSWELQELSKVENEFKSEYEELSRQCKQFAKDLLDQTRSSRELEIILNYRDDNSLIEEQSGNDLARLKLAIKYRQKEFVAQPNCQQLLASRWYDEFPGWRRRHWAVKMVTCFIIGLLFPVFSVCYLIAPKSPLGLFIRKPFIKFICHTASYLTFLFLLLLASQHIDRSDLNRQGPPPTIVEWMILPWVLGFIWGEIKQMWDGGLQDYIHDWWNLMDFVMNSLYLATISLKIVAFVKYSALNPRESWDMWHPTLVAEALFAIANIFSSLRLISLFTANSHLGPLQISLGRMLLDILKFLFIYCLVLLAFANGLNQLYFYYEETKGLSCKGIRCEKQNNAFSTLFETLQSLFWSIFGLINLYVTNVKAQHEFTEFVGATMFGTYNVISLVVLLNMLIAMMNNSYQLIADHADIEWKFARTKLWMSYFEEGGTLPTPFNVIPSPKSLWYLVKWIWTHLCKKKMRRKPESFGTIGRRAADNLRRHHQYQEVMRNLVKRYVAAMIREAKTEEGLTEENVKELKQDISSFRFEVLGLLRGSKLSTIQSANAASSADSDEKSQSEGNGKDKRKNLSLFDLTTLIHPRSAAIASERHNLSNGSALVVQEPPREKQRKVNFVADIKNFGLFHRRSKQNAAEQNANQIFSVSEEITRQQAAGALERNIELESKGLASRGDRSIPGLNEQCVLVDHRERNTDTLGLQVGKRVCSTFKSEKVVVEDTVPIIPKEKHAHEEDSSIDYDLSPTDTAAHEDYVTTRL

Cytochrome P450 3A4 = Cytochrome P450 3A4 (Homo sapiens, UniProt P08684);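 also: CYP3A4 tested as one member of a cytochrome P450 panel screen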
Cytochrome P450 1A2 = biological target: T2, Cytochrome P450 1A2 (Homo sapiens, UniProt P05177);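 also: PubChem cytochrome P450 panel assay, CYP1A2 panel member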
T2 sequence (P05177 whole entry): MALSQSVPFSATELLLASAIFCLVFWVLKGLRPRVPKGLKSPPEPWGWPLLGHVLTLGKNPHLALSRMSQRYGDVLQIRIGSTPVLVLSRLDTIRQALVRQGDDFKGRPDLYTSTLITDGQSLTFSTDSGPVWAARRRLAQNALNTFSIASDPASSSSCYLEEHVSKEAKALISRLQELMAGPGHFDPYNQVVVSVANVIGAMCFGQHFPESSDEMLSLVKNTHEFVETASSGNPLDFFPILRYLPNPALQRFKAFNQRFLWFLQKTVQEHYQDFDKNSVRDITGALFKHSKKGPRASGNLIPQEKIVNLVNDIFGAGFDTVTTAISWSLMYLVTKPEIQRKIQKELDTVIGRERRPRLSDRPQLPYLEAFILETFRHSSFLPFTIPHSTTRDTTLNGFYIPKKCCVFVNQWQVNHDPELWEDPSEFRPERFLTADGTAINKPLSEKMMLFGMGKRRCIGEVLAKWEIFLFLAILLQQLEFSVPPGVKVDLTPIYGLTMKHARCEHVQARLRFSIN

[2] = biological target: T3, Carboxy-terminal domain RNA polymerase II polypeptide A small phosphatase 1 (Homo sapiens, UniProt Q9GZU7); assay: inhibitors of CTDSP1, concentration-response testing, biochemical assay, absorbance-based, actives from ultra-high-throughput screening (AID 540297); format: functional
T3 sequence (Q9GZU7 whole entry): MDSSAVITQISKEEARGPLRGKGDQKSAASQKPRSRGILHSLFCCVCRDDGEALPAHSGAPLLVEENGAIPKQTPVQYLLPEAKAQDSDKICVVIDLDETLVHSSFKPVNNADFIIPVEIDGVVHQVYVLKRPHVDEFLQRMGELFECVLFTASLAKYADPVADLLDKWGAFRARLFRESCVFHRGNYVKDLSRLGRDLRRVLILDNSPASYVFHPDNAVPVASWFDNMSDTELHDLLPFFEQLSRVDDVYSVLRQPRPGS

[3] = inhibitors of firefly luciferase expression or activity, dose response, H4 neuroglioma cells, luminescence (AID 1990); format: functional, cell-based
[4] = Luminescence Cell-Based Dose Response HTS to Identify Inhibitors of 5'UTR Stem-Loop Driven Prion Protein mRNA Translation in H4 Neuroglioblastoma Cells. [Related pubchem assays: 1827 (Project Summary), 1813 (Primary HTS)]; format: functional
[5] = inhibitors of SNCA 5'UTR-driven reporter translation, confirmation, H4 neuroglioma cells, luminescence (AID 1988); format: functional, cell-based
[6] = Vero E6 cell cytotoxicity, dose response, cytotoxicity control for non-replicating M. tuberculosis project, secondary assay (AID 492998); format: functional, VeroE6; conditions: Vero C1008
cells = format: functional
Nonstructural protein 1 = Nonstructural protein 1 (Influenza A virus, UniProt Q194T2); format: functional, Influenza A virus (A/California/07/2009(H1N1))
[7] = biological target: Dual specificity tyrosine-phosphorylation-regulated kinase 1A (Rattus norvegicus, UniProt Q63470); format: biochemical, Homo sapiens
HEK293 = assay: inhibitors of LMP1-driven NF-kB reporter, dose response, cell-based, HEK293, luciferase, cherry-pick (AID 588343); format: functional; conditions: Homo sapiens
[8] = NIH-3T3 fibroblast cytotoxicity, dose response, cytotoxicity control, cell-based, fluorescence, Alamar Blue, secondary assay (AID 2327); format: functional;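 also: NIH-3T3 mouse fibroblasts cultured with fluconazole at 8 µg/mL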
[9] = C. albicans growth with fluconazole, confirmation, fluorescence, retest (AID 2467); format: functional, cell-based
[10] = biological target: T4, Microphthalmia-associated transcription factor (Homo sapiens, UniProt O75030); assay: TRPM1 promoter luciferase signal decrease, dose response, MITF inhibitor project, cell-based, SK-MEL-5, cherry-picked, set 3 (AID 493073); format: functional
T4 sequence (O75030 whole entry): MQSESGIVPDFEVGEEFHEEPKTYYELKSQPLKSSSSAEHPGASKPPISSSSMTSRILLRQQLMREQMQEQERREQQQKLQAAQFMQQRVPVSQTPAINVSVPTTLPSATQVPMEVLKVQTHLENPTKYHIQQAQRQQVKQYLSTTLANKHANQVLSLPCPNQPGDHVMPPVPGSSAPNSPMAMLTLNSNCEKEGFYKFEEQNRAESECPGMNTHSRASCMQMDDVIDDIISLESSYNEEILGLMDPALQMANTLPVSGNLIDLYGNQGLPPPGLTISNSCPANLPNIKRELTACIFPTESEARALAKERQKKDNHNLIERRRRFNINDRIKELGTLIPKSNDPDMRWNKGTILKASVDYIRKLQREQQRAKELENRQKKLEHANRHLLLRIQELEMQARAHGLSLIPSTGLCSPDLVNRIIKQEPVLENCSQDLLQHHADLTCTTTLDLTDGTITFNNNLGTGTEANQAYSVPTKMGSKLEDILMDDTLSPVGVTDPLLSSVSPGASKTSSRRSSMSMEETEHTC

[11] = biological target: T5, Heat shock factor protein 1 (Mus musculus, UniProt P38532); assay: inhibition of MG132-induced HSE-luciferase signal, confirmation, cell-based, NIH3T3, luminescence, dose retest (AID 2382); format: functional;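 also: NIH3T3 fibroblasts with HSF1-driven luciferase reporter stressed by proteasome inhibitor MG132; luminescence from HSF1-driven luciferase expression after 8 hours of MG132 stress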
T5 sequence (P38532 whole entry): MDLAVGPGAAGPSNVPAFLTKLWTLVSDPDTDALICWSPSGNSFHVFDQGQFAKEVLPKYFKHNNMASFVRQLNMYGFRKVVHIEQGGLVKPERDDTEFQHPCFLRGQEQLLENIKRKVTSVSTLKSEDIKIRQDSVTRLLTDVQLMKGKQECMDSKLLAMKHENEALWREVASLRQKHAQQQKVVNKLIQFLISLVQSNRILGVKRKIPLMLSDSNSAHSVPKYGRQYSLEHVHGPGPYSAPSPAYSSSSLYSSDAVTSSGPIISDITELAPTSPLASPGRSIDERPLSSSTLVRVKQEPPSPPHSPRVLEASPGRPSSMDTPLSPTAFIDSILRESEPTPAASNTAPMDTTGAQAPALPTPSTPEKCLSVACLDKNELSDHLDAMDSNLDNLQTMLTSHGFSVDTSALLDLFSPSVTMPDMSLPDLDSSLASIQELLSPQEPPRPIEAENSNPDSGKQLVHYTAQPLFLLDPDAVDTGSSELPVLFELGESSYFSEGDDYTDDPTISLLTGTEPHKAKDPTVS

Chain of Cytochrome P450 3A4 (P08684 whole entry): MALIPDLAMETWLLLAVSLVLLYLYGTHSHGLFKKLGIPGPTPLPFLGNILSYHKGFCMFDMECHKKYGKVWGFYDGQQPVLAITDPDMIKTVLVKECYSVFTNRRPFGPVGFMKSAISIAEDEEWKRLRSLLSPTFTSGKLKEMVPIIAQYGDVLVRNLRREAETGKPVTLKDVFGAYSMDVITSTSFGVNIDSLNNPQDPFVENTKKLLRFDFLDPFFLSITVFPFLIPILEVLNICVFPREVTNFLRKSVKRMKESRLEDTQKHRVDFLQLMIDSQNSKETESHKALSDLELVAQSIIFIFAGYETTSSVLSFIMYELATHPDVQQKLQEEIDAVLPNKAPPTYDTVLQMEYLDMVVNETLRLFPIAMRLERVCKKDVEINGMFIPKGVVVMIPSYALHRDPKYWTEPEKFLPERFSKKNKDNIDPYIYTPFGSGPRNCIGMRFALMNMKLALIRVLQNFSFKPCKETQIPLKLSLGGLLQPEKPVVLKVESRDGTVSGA
Chain of Nonstructural protein 1 (Q194T2 whole entry): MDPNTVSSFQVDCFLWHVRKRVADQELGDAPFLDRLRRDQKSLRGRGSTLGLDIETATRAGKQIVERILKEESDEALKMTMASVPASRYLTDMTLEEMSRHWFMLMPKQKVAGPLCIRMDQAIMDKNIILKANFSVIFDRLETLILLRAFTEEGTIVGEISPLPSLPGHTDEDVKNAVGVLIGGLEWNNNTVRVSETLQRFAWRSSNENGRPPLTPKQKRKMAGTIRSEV

For COc1cccc(CN2CCNC(=O)C2CC(=O)N(C)CCc2ccccn2)c1OC (configuration not stated), the EC50 [1] was 6.68 µM (active).
With CC(C)OC(=O)C(C)(C)Oc1ccc(C(=O)c2ccc(Cl)cc2)cc1 [FENOFIBRATE] the AC50 (Cytochrome P450 3A4) was “inconclusive”.
For CC(=O)OCC(=O)[C@@]1(OC(C)=O)[C@H](C)C[C@H]2[C@@H]3C[C@H](F)C4=CC(=O)C=C[C@@]4(C)[C@]3(F)[C@H](O)C[C@@]21C, the AC50 (Cytochrome P450 1A2) was 12.6 µM (inconclusive) and the AC50 (Cytochrome P450 3A4) was “inconclusive”.
For N#Cc1ccccc1S(=O)(=O)N1CCN(C(=O)C2COc3ccccc3O2)CC1 (configuration not stated), the IC50 [2] was 3.54 µM (active).
With O=C(N/N=C1\CCCc2c1[nH]c1ccc(Cl)cc21)c1ccncc1 the EC50 [3] was 11.1 µM (active), the EC50 [4] was 25.8 µM (active) and the EC50 [5] was 10.3 µM (active). For the same compound, the CC50 [6] was 9.43 µM (active) and the IC50 (cells) was 0.6 µM (active).
In the case of O=C(CSc1nccc(O)n1)N1N=C2/C(=C/c3ccco3)CCCC2C1c1ccco1 (configuration not stated), the IC50 [2] is reported as 13 µM (active).
For CCOC(=O)C1=C(C)N=C2c3ccccc3C(=O)C2C1c1ccc(C)cc1 (configuration not stated), the IC50 (Nonstructural protein 1) was > 100 µM (active) and the AC50 (Cytochrome P450 3A4) was “inconclusive”.
For C(=N\Nc1[nH]cnc2ncnc1-2)/c1cccs1, the AC50 [7] was 5.83 µM (active).
For COc1ccc(S(=O)(=O)NCCc2csc(-c3cccnc3)n2)cc1, the AC50 (HEK293) was 144 µM (active).
With Nc1ncnc(Sc2ncccn2)c1[N+](=O)[O-] the EC50 [8] was 7.47 µM (inconclusive), the EC50 [9] was 1 µM (active) and the AC50 [10] was 11.7 µM (active).
With O=C(c1cc(C(F)(F)F)cc(C(F)(F)F)c1)N1CCC2(CC1)CCN(c1ccncc1)CC2 the AC50 (Cytochrome P450 1A2) was 25.1 µM (inconclusive) and the AC50 (Cytochrome P450 3A4) was “inconclusive”.
For CC(C)(C)OC(=O)N1Cc2ccccc2C[C@H]1C(=O)NCC(=O)Nc1ccc2c(c1)OCCO2, the EC50 [11] was 0.755 µM (active) and the AC50 (HEK293) was 1.4 µM (active).
